In patent publication US6410735B1, “1-(4-arylpiperazin-1-y1)-ω-[N-(α,ω-dicarboximido)]-alkanes useful as uro-selective α1-adrenoceptor blockers” (Ranbaxy Laboratories Limited, priority 1997, dated 2002):

What follows are molecules tested against T1, α1A-adrenoceptor (Rattus norvegicus, UniProt P43140) (assay: Receptor binding assay, [3H]prazosin, rat submaxillary membranes). Settings: not given.
T1 construct: from tissue; host or cells: rat submaxillary gland membranes
T1 sequence (P43140 1-466): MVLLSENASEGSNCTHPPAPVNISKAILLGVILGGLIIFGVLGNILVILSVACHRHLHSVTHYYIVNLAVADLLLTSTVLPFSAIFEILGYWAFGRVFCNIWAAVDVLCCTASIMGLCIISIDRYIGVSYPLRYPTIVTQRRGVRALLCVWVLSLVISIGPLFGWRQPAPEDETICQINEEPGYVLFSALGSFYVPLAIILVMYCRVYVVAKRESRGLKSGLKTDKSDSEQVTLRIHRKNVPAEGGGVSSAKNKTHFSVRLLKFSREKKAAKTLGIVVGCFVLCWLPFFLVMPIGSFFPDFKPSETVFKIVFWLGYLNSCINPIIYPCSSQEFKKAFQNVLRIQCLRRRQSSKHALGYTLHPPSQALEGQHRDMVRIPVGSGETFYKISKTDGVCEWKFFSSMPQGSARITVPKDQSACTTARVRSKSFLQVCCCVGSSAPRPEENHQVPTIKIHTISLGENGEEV
Protocol: (§1) Receptor binding assays, (RBA's) were performed for native α1-adrenoceptors. Rat submaxillary and rat liver membrane preparations were used to assess the affinity for α1A and α1B subtypes, respectively. Aliquots of membrane protein ([…]) were incubated in a final volume of […] assay buffer (50 mM Tris, 0.5 mM EDTA at pH 7.4) with 0.5 nM [^3H] prazosin for 60 mins at 28 ° C. Reaction was stopped by rapid filtration on Millipore filters. Filters were dried and bound radioactivity counted. Non-specific binding was determined in the presence of 0.3 mM prazosin.

Compound	Ki
COc1ccc(N2CCN(CCCN3C(=O)CCCC3=O)CC2)cc1 [Compound 24, 1-[4-(4-Methoxyphenyl)piperazin-1-yl]-3-(2,6-dioxopiperidin-1-yl)propane]	< 2500 nM
O=C1CCC(=O)N1CCCN1CCN(c2ccccc2)CC1 [Compound 8, 1-[4-(Phenylpiperazin)-1-yl]-3-(2,5-dioxopyrrolidin-1-yl)propane]	57 nM

Same assay, conditions: rat submaxillary membranes, 0.5 nM [3H]prazosin; read-out: RBA (Ki nM) α1A

Compound	Ki
O=C1CCC(=O)N1CCCN1CCN(c2ccccn2)CC1 [Compound 4, 1-[4-(2-Pyridyl)piperazin-1-yl]-3-(2,5-dioxopyrrolidin-1-yl)propane]	1660 nM
O=C1CCCC(=O)N1CCCN1CCN(c2cccc(C(F)(F)F)c2)CC1 [Compound 16, 1-[4-(3-Trifluoromethylphenyl)piperazin-1-yl]-3-(2,6-dioxopiperidin-1-yl)propane]	345 nM
O=C1CCCC(=O)N1CCCN1CCN(c2ccc(F)cc2)CC1 [Compound 14, 1-[4-(4-Fluorophenyl)piperazin-1-yl]-3-(2,6-dioxopiperidin-1yl)propane]	67 nM
COc1ccccc1N1CCN(CCN2C(=O)CCC2=O)CC1 [Compound 10, 1-[4-(2-Methoxyphenyl)piperazin-1-yl]-2-(2,5-dioxopyrrolidin-1-yl)ethane]	1600 nM
COc1cccc(N2CCN(CCCN3C(=O)CCC3=O)CC2)c1 [Compound 11, 1-[4-(3-Methoxyphenyl)piperazin-1-yl]-3-(2,5-dioxopyrrolidin-1-yl)propane]	> 2500 nM
Cc1ccccc1N1CCN(CCCN2C(=O)CCCC2=O)CC1 [Compound 18, 1-[4-(2-Methylphenyl)piperazin-1-yl]-3-(2,6-dioxopiperidin-1yl)propane]	9 nM
O=C1CCC(=O)N1CCCN1CCN(c2cccc(Cl)c2)CC1 [Compound 5, 1-[4-(3-Chlorophenyl)piperazin-1-yl]-3-(2,5-dioxopyrrolidin-1-yl)propane]	106 nM

The molecules below were run against T2, α1B-adrenoceptor (Rattus norvegicus, UniProt P15823) (assay: Receptor binding assay, [3H]prazosin, rat liver membranes). Settings: not given.
T2 construct: from tissue; host or cells: rat liver membranes
T2 sequence (P15823 1-515): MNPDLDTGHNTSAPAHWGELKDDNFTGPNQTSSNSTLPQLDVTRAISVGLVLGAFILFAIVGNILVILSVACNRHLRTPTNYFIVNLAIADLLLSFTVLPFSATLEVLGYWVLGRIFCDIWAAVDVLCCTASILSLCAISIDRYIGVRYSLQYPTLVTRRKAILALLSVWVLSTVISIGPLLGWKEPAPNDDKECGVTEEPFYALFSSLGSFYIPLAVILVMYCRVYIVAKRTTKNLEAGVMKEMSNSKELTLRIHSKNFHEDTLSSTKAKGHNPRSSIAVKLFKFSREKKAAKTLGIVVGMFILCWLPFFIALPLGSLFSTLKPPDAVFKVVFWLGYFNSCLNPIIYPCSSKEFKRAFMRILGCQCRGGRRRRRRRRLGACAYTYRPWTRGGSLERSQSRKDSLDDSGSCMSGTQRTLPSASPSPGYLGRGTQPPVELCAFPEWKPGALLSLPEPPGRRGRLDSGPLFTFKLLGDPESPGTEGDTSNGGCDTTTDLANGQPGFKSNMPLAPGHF
Protocol: as §1

Compound	Ki
COc1ccc(N2CCN(CCCN3C(=O)CCCC3=O)CC2)cc1 [Compound 24, 1-[4-(4-Methoxyphenyl)piperazin-1-yl]-3-(2,6-dioxopiperidin-1-yl)propane]	> 2500 nM

Same assay, conditions: rat liver membranes, 0.5 nM [3H]prazosin; read-out: RBA (Ki nM) α1B

Compound	Ki
O=C1CCC(=O)N1CCCN1CCN(c2ccccn2)CC1 [Compound 4, 1-[4-(2-Pyridyl)piperazin-1-yl]-3-(2,5-dioxopyrrolidin-1-yl)propane]	2100 nM
O=C1CCCC(=O)N1CCCN1CCN(c2cccc(C(F)(F)F)c2)CC1 [Compound 16, 1-[4-(3-Trifluoromethylphenyl)piperazin-1-yl]-3-(2,6-dioxopiperidin-1-yl)propane]	765 nM
O=C1CCCC(=O)N1CCCN1CCN(c2ccc(F)cc2)CC1 [Compound 14, 1-[4-(4-Fluorophenyl)piperazin-1-yl]-3-(2,6-dioxopiperidin-1yl)propane]	192 nM
COc1ccccc1N1CCN(CCN2C(=O)CCC2=O)CC1 [Compound 10, 1-[4-(2-Methoxyphenyl)piperazin-1-yl]-2-(2,5-dioxopyrrolidin-1-yl)ethane]	2350 nM
COc1cccc(N2CCN(CCCN3C(=O)CCC3=O)CC2)c1 [Compound 11, 1-[4-(3-Methoxyphenyl)piperazin-1-yl]-3-(2,5-dioxopyrrolidin-1-yl)propane]	> 2500 nM
Cc1ccccc1N1CCN(CCCN2C(=O)CCCC2=O)CC1 [Compound 18, 1-[4-(2-Methylphenyl)piperazin-1-yl]-3-(2,6-dioxopiperidin-1yl)propane]	267 nM
O=C1CCC(=O)N1CCCN1CCN(c2cccc(Cl)c2)CC1 [Compound 5, 1-[4-(3-Chlorophenyl)piperazin-1-yl]-3-(2,5-dioxopyrrolidin-1-yl)propane]	175 nM
O=C1CCC(=O)N1CCCN1CCN(c2ccccc2)CC1 [Compound 8, 1-[4-(Phenylpiperazin)-1-yl]-3-(2,5-dioxopyrrolidin-1-yl)propane]	590 nM

Each molecule was assayed against T3, α1A-adrenoceptor (prostate) (Rattus norvegicus, UniProt P43140) (assay: In vitro functional assay, phenylephrine-induced contraction of isolated prostate). Settings: not given.
T3 construct: Aorta, prostate and spleen tissues were isolated from urethane anaesthetized (1.5 gm/kg) male wistar rats; from tissue; host or cells: isolated prostate of male Wistar rats
T3 sequence (P43140 1-466): T1 sequence (P43140 1-466)
Format: cell-based
Description: (§2) In order to study selectivity of action of the present compounds towards different α-adrenoceptor subtypes, the ability of these compounds to antagonize α1-adrenoceptor agonist induced contractile response of aorta (α1D), prostate (α1A) and spleen (α1B) was studied. Aorta, prostate and spleen tissues were isolated from urethane anaesthetized (1.5 gm/kg) male wistar rats. Isolated tissues were mounted in organ bath containing Krebs Henseleit buffer of the following composition (mM): NaCl 118; KCl 4.7; CaCl2 2.5; MgSO4·H2O 1.2; NaHCO3 25; KH2PO4 1.2; glucose 11.5. Buffer was maintained at 37° C. and aerated with a mixture of 95% O2 and 5% CO2. A resting tension of 2 g (aorta) or 1 g (spleen and prostate) was applied to tissues. Contractile response was monitored using a force displacement transducer and recorded on chart recorders. Tissues were allowed to equilibrate for 2 hours. At the end of equilibration period, concentration response curves to norepinephrine (aorta) and phenylephrine (spleen and prostate) were obtained in the absence and presence of the tested compound (at concentrations of 0.1, 1 and 10 μM). Antagonist affinity was calculated and expressed as PKB values in Table 1.

Compound	Kb
O=C1CCC(=O)N1CCCN1CCN(c2ccccc2)CC1 [Compound 8, 1-[4-(Phenylpiperazin)-1-yl]-3-(2,5-dioxopyrrolidin-1-yl)propane]	31.6 nM

Same assay, conditions: rat prostate, phenylephrine; read-out: In Vitro Functional Assay (pKB) α1A (converted)

Compound	Kb
O=C1CCCC(=O)N1CCCN1CCN(c2cccc(C(F)(F)F)c2)CC1 [Compound 16, 1-[4-(3-Trifluoromethylphenyl)piperazin-1-yl]-3-(2,6-dioxopiperidin-1-yl)propane]	316 nM
O=C1CCCC(=O)N1CCCN1CCN(c2ccc(F)cc2)CC1 [Compound 14, 1-[4-(4-Fluorophenyl)piperazin-1-yl]-3-(2,6-dioxopiperidin-1yl)propane]	3.98 nM
COc1ccccc1N1CCN(CCN2C(=O)CCC2=O)CC1 [Compound 10, 1-[4-(2-Methoxyphenyl)piperazin-1-yl]-2-(2,5-dioxopyrrolidin-1-yl)ethane]	126 nM
Cc1ccccc1N1CCN(CCCN2C(=O)CCCC2=O)CC1 [Compound 18, 1-[4-(2-Methylphenyl)piperazin-1-yl]-3-(2,6-dioxopiperidin-1yl)propane]	6.31 nM
O=C1CCC(=O)N1CCCN1CCN(c2cccc(Cl)c2)CC1 [Compound 5, 1-[4-(3-Chlorophenyl)piperazin-1-yl]-3-(2,5-dioxopyrrolidin-1-yl)propane]	5010 nM

The molecules below were run against T4, α1B-adrenoceptor (spleen) (Rattus norvegicus, UniProt P15823) (assay: In vitro functional assay, phenylephrine-induced contraction of isolated spleen). Settings: rat spleen, phenylephrine; read-out: In Vitro Functional Assay (pKB) α1B (converted).
T4 construct: Aorta, prostate and spleen tissues were isolated from urethane anaesthetized (1.5 gm/kg) male wistar rats; from tissue; host or cells: isolated spleen of male Wistar rats
T4 sequence (P15823 1-515): T2 sequence (P15823 1-515)
Format: cell-based
Description: as §2

Compound	Kb
O=C1CCCC(=O)N1CCCN1CCN(c2ccc(F)cc2)CC1 [Compound 14, 1-[4-(4-Fluorophenyl)piperazin-1-yl]-3-(2,6-dioxopiperidin-1yl)propane]	39.8 nM
COc1ccccc1N1CCN(CCN2C(=O)CCC2=O)CC1 [Compound 10, 1-[4-(2-Methoxyphenyl)piperazin-1-yl]-2-(2,5-dioxopyrrolidin-1-yl)ethane]	200 nM
Cc1ccccc1N1CCN(CCCN2C(=O)CCCC2=O)CC1 [Compound 18, 1-[4-(2-Methylphenyl)piperazin-1-yl]-3-(2,6-dioxopiperidin-1yl)propane]	3160 nM
O=C1CCC(=O)N1CCCN1CCN(c2cccc(Cl)c2)CC1 [Compound 5, 1-[4-(3-Chlorophenyl)piperazin-1-yl]-3-(2,5-dioxopyrrolidin-1-yl)propane]	5010 nM

These molecules were tested against T5, α1D-adrenoceptor (aorta) (Rattus norvegicus, UniProt P23944) (assay: In vitro functional assay, norepinephrine-induced contraction of isolated aorta). Settings: not given.
T5 construct: Aorta, prostate and spleen tissues were isolated from urethane anaesthetized (1.5 gm/kg) male wistar rats; from tissue; host or cells: isolated aorta of male Wistar rats
T5 sequence (P23944 1-561): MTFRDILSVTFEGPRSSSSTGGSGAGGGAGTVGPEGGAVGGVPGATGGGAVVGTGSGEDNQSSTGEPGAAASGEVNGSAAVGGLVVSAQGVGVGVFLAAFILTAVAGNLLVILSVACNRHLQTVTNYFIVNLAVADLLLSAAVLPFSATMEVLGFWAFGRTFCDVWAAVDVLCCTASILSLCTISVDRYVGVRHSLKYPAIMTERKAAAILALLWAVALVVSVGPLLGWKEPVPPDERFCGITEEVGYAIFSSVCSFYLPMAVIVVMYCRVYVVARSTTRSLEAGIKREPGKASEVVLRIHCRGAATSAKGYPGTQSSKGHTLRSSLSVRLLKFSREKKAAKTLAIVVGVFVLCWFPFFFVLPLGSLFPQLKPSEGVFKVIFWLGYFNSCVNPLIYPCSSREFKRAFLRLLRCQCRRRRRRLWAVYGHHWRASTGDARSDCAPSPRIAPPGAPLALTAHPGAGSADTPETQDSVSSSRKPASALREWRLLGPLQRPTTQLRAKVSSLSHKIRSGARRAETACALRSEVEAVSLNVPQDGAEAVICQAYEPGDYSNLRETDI
Format: cell-based
Description: as §2

Compound	Kb
O=C1CCC(=O)N1CCCN1CCN(c2cccc(Cl)c2)CC1 [Compound 5, 1-[4-(3-Chlorophenyl)piperazin-1-yl]-3-(2,5-dioxopyrrolidin-1-yl)propane]	100 nM

Same assay, conditions: rat aorta, norepinephrine; read-out: In Vitro Functional Assay (pKB) α1D (converted)

Compound	Kb
O=C1CCC(=O)N1CCCN1CCN(c2ccccn2)CC1 [Compound 4, 1-[4-(2-Pyridyl)piperazin-1-yl]-3-(2,5-dioxopyrrolidin-1-yl)propane]	2510 nM
O=C1CCCC(=O)N1CCCN1CCN(c2cccc(C(F)(F)F)c2)CC1 [Compound 16, 1-[4-(3-Trifluoromethylphenyl)piperazin-1-yl]-3-(2,6-dioxopiperidin-1-yl)propane]	126 nM
O=C1CCCC(=O)N1CCCN1CCN(c2ccc(F)cc2)CC1 [Compound 14, 1-[4-(4-Fluorophenyl)piperazin-1-yl]-3-(2,6-dioxopiperidin-1yl)propane]	79.4 nM
COc1ccccc1N1CCN(CCN2C(=O)CCC2=O)CC1 [Compound 10, 1-[4-(2-Methoxyphenyl)piperazin-1-yl]-2-(2,5-dioxopyrrolidin-1-yl)ethane]	126 nM
Cc1ccccc1N1CCN(CCCN2C(=O)CCCC2=O)CC1 [Compound 18, 1-[4-(2-Methylphenyl)piperazin-1-yl]-3-(2,6-dioxopiperidin-1yl)propane]	3.16 nM
O=C1CCC(=O)N1CCCN1CCN(c2ccccc2)CC1 [Compound 8, 1-[4-(Phenylpiperazin)-1-yl]-3-(2,5-dioxopyrrolidin-1-yl)propane]	251 nM
